# Experimental data as given in patent US6521211B1, “Methods of imaging and treatment with targeted compositions” (Bristol-Myers Squibb Medical Imaging, Inc., priority 1995, dated 2003).
# Test system: β-galactosidase gene (pSV β-gal)
# Experiment: in vivo delivery of genetic material in rats, X-gal staining, with or without ultrasound
# Set-up: species or system Sprague Dawley rats
# Conditions: mixed with plasmid pSV β-gal, tail vein, 48 hours
# Experimental: Plasmid pSV β-gal (Promega, Madison, Wiss.), which contains the β-galactosidase gene, and the cationic lipid compound prepared in Example 3 were combined by mixing. The resulting mixture was injected into each of three Sprague Dawley rats (rats (A), (B) and (C)) via the tail vein. Rat (A) was not subjected to ultrasound. Ultrasonic energy was applied to the inside of the hind leg during injection for each of rats (B) and (C). After 48 hours, the rats were euthanized and the tissues were removed. The tissues were fixed for 72 hours in 2% formalin, sliced thin and placed in an X-gal solution. After 16 hours at 37° C., the tissues were inspected.
smiles,measurement,setting,value
"CCCCCCCCCCCCCCCCOC(=O)CN(CC[N+](C)(CC(=O)NCC[N+](C)(C)C)CC(=O)OCCCCCCCCCCCCCCCC)CC(=O)O (stereo not drawn) [Example 3, N,N′-bis (hexadecyloxycarbonylmethylene)-N-(β-N,N,N-trimethylammoniumethyl-aminocarbonylmethylene) -N-methyl-N′-(carboxymethylene)ethylenediamine diiodide]",X-gal staining of tissue (transfection),"rat (A), no ultrasound",blue color which is indicative of general transfection
same,X-gal staining of tissue (transfection),"rats (B) and (C), ultrasonic energy to inside of hind leg during injection",blue color only at the site where ultrasound energy was applied
